For experiment [1], the target named is Fibroblast growth factor receptor 3 (Homo sapiens) (UniProt P22607). Particulars: Compound concentration 20.0 uM, Protein concentration 2.0 uM, Result type QC Liability.
Description: Thermal Shift Assay. Domain: start/stop: P449-E759
The next experiment has as its target T1, Peregrin (Homo sapiens) (UniProt P55201).
T1 sequence (whole entry): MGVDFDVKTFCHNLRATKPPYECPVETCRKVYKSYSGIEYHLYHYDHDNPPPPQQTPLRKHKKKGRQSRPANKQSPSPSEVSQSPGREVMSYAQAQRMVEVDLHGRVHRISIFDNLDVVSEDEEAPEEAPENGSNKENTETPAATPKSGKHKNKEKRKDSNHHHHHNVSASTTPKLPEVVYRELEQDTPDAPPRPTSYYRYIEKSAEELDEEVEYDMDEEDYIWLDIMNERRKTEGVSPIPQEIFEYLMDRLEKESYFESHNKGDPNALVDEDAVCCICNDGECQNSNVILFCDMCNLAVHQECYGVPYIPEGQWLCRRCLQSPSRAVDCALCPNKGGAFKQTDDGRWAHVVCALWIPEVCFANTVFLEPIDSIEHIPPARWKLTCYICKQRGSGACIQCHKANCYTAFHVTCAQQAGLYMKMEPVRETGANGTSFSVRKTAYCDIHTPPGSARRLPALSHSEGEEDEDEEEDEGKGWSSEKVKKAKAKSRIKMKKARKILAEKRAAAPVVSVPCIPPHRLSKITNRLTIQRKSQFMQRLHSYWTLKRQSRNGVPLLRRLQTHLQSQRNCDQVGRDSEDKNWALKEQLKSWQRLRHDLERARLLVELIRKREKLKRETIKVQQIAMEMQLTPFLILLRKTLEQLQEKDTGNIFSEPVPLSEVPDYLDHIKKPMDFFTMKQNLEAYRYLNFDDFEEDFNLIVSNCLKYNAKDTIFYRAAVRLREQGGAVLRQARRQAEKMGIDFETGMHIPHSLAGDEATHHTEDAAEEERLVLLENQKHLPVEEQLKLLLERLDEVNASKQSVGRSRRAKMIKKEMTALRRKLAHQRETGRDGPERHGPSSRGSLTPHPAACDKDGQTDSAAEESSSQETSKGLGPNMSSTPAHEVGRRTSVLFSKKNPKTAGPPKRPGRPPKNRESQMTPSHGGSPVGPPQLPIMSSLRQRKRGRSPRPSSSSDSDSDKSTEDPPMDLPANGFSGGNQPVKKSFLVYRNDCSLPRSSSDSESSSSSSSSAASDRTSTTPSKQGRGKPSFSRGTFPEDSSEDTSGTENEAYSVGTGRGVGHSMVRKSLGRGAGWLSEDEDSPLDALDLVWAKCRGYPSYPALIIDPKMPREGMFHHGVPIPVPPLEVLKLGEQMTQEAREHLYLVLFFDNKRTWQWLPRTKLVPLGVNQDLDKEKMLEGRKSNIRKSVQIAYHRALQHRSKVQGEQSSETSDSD
Particulars: Compound concentration 20.0 uM, Protein concentration 2.0 uM, Result type QC Liability.

SMILES strings stand for the structures.

By ΔTm is commonly meant the change in melting temperature against a reference sample.

Fibroblast growth factor receptor 3 (Homo sapiens), sequence (P22607 23-806 limits assumed): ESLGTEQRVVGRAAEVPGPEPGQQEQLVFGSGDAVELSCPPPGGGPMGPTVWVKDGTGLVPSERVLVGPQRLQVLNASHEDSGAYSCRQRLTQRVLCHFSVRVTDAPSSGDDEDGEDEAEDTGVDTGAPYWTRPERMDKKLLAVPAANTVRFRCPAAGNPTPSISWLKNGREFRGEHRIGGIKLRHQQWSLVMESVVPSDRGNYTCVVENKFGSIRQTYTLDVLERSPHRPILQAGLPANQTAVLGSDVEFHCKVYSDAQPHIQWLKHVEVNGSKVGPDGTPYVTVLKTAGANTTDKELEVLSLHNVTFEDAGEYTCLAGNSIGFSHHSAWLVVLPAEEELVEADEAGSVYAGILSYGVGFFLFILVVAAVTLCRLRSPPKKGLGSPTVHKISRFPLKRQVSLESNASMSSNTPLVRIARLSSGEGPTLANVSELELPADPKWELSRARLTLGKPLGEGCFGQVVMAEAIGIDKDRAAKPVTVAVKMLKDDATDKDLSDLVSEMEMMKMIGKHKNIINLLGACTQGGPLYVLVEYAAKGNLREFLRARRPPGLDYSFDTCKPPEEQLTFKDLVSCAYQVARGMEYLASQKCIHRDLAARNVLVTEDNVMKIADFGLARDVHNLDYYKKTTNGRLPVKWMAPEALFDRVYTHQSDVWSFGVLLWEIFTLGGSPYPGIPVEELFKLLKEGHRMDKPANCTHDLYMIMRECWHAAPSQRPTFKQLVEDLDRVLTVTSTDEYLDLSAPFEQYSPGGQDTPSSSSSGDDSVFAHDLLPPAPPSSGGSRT

In the case of `O=C(N[C@H]1CCC[C@H](CO)C1)C1CCN(c2nc3cc(Cl)c(-c4ccc(Cl)cc4)cc3o2)CC1`, the results for the ΔTm (in experiment [1]; at Peregrin (Homo sapiens)) were -8.62 °C and -0.52 °C, respectively.
For the compound `CN[C@@H](C)C(=O)N[C@H](C(=O)N1CCC[C@H]1c1nc(C(=O)c2ccc(F)cc2)cs1)C1CCCCC1`, the shift in melting temperature (ΔTm) in experiment [1] is 0.96 °C; on Peregrin (Homo sapiens), -1.91 °C.
For the compound `CCCCC[C@H](O)/C=C/[C@H]1[C@H](O)CC(=O)[C@@H]1CCCCCCC(=O)O`, the values for the ΔTm (in experiment [1]; at Peregrin (Homo sapiens)) were 0.41 °C and -2.24 °C, respectively.
The corresponding values for `CC(C)C(=O)N1CCC(c2cn(C)c3ncc(NC(=O)c4cccc(C#N)c4)c(C(F)(F)F)c23)CC1` are 0.79 °C and 0.27 °C.
The corresponding values for `CC(F)(F)CN1C(=O)c2[nH]nc(-c3cccc4[nH]c(=O)oc34)c2C1c1ccc(Oc2cc(C(F)(F)F)cc(C(F)(F)F)c2)cc1` (stereo not drawn) are -5.32 °C and -0.66 °C.
On to `Cn1c(C(=O)N[C@@H](CO)c2ccc(C(=O)O)cc2)cc2cc(Cl)ccc21`, for which the ΔTm in experiment [1] is 0.81 °C; on Peregrin (Homo sapiens), -2.2 °C.
Regarding `CN(C)C/C=C/C(=O)Nc1cc2c(Nc3ccc(F)c(Cl)c3)ncnc2cc1OC[C@@H]1CCCO1`, the results for the ΔTm (in experiment [1]; on Peregrin (Homo sapiens)) were 1.49 °C and -0.41 °C, respectively.
On to `CCC(C)(C)CC[C@H](NC(=O)N1CCOCC1)C(=O)NC1(C#N)CCN(C)CC1`, for which the ΔTm in experiment [1] is 0.71 °C; on Peregrin (Homo sapiens), -3.19 °C.
Take `c1ccc2c(c1)SCc1c-2[nH]c2ccccc12`: the shift in melting temperature (ΔTm) was 0.81 °C in experiment [1] and -9.42 °C on Peregrin (Homo sapiens).
On the same counts, the results for `CCN(C(=O)c1cc(F)ccc1Oc1cncnc1N1CC2(CCN(C[C@H]3CC[C@H](NS(=O)(=O)CC)CC3)CC2)C1)C(C)C` are 0.56 °C and -0.92 °C.
With `CO[C@H]1C[C@@H]2CC[C@@H](C)[C@@](O)(O2)C(=O)C(=O)N2CCCC[C@H]2C(=O)O[C@H]([C@H](C)C[C@@H]2CC[C@@H](O)[C@H](OC)C2)CC(=O)[C@H](C)/C=C(\C)[C@@H](O)[C@@H](OC)C(=O)[C@H](C)C[C@H](C)/C=C/C=C/C=C/1C`, the ΔTm in experiment [1] is 0.26 °C; on Peregrin (Homo sapiens), -1.78 °C.
For the compound `O=C1Nc2ccc(I)cc2/C1=C/c1cc(Br)c(O)c(Br)c1`, the values for the thermal shift (ΔTm) (in experiment [1]; at Peregrin (Homo sapiens)) were 0.51 °C and -0.58 °C, respectively.
On to `Cc1ccc(NC(=O)c2ccc(CN3CC[C@H](N(C)C)C3)c(C(F)(F)F)c2)cc1Nc1nccc(-c2cncnc2)n1`, for which the thermal shift (ΔTm) in experiment [1] was 0.68 °C; on Peregrin (Homo sapiens), -3.14 °C.
`COc1ccc(C(F)(F)F)cc1NC(=O)Nc1ccc(Oc2cc(C)nc(N)n2)c2ccccc12`: the ΔTm was 2.41 °C in experiment [1] and 1.59 °C at Peregrin (Homo sapiens).
Consider `CCCCc1c(-c2ccccc2)nc(N)nc1-c1ccc(OCc2ccccc2)c(F)c1F`, for which the ΔTm in experiment [1] was -0.31 °C; at Peregrin (Homo sapiens), -4.97 °C.
As for `CN(C)C/C=C/C(=O)Nc1ccc(C(=O)Nc2cccc(Nc3ncc(Cl)c(-c4c[nH]c5ccccc45)n3)c2)cc1`, the values for the ΔTm (in experiment [1]; at Peregrin (Homo sapiens)) were 6.9 °C and 0.03 °C, respectively.
As to `CN(C(=O)CCOCCOCCOCCOCCNc1cccc2c1C(=O)N(C1CCC(=O)NC1=O)C2=O)[C@H]1CC[C@@]2(C)[C@@H](CC[C@@H]3[C@@H]2CC[C@]2(C)[C@@H](c4ccc5ccncc5c4)CC[C@@H]32)C1` (stereo partly drawn), the shift in melting temperature (ΔTm) in experiment [1] is 1.42 °C; at Peregrin (Homo sapiens) it was 3.76 °C.
Turning to `CC(C)c1nc2c(c3c1[C@@H](c1ccc(C(F)(F)F)cc1)OC31CCOCC1)[C@@H](O)CC(C)(C)C2`, the thermal shift (ΔTm) in experiment [1] is 0.98 °C; on Peregrin (Homo sapiens), -3.83 °C.
The corresponding values for `CNc1nc(-c2cc(C(=O)N3CCN(Cc4ccc(Cl)cc4)CC3)c(Cl)cn2)cs1` are 0.37 °C and -1.62 °C.
As for `Nc1ncnc2c1c(I)cn2[C@@H]1O[C@H](CO)[C@@H](O)[C@H]1O`, the ΔTm in experiment [1] is 3.13 °C; on Peregrin (Homo sapiens) it was -1.79 °C.
Regarding `CNC(=O)COc1cc2cc(Nc3nc(N4C[C@H](C)C[C@H](C)C4)ncc3Cl)ccc2n(C)c1=O`, the results for the ΔTm (in experiment [1]; on Peregrin (Homo sapiens)) were 0.62 °C and -2.08 °C, respectively.
Take `C[C@H]1CN(C2COC2)CCN1c1ccc(Nc2cc(-c3ccnc(N4CCn5c(cc6c5CC(C)(C)C6)C4=O)c3CO)cn(C)c2=O)nc1`: the ΔTm was 4.28 °C in experiment [1] and -2.12 °C on Peregrin (Homo sapiens).
`C[C@H](CCC(=O)O)[C@H]1CC[C@H]2[C@@H]3CC[C@@H]4C[C@H](O)CC[C@]4(C)[C@H]3CC[C@]12C`: the ΔTm in experiment [1] is -0.33 °C; on Peregrin (Homo sapiens), -3.84 °C.
On to `Cc1cccc(-c2nn3c(c2-c2ccnc4ccc(C(N)=O)cc24)CCC3)n1`, for which the shift in melting temperature (ΔTm) in experiment [1] is 1.13 °C; at Peregrin (Homo sapiens) it was -0.93 °C.
For the compound `CC(C)(C)NC(=O)c1cncn1C1CCN(c2ccc(-c3nnc(C(F)(F)F)o3)cn2)CC1`, the thermal shift (ΔTm) in experiment [1] is 0.91 °C; at Peregrin (Homo sapiens), -2.22 °C.
Consider `CCCCNc1ncc2c(-c3ccc(CN4CCN(C)CC4)cc3)cn([C@H]3CC[C@H](O)CC3)c2n1`, for which the results for the thermal shift (ΔTm) (in experiment [1]; at Peregrin (Homo sapiens)) were 7.9 °C and -3.2 °C, respectively.
For the compound `Cn1ncc(NC(=O)c2nc(-c3c(F)cccc3F)sc2N)c1N1CC[C@@H](N)[C@H](F)CC1`, the ΔTm in experiment [1] was 0.81 °C; at Peregrin (Homo sapiens) it was -0.66 °C.
Regarding `N[C@@H]1CCCN(c2c(/C=C3\SC(=O)NC3=O)cccc2-c2ccccc2)C1`, the ΔTm was 0.95 °C in experiment [1] and -2.04 °C at Peregrin (Homo sapiens).
`COc1cc(-c2cn(C)c(=O)c3cnccc23)cc(OC)c1CN(C)C`: the ΔTm in experiment [1] worked out at 0.44 °C; on Peregrin (Homo sapiens), 1.79 °C.
For `CN(C)C(=O)Cn1cc(-c2nc([C@@](C)(c3ccc(-c4cnc(N)nc4)cc3)C3CC3)no2)cn1`, the ΔTm in experiment [1] is 0.61 °C; at Peregrin (Homo sapiens) it was -1.93 °C.
`Cn1cc(-c2ccc(N(C(=O)NCc3ccccc3)[C@H]3CC[C@H](Nc4ccc(C#N)cn4)CC3)cc2)ccc1=O`: the shift in melting temperature (ΔTm) in experiment [1] was 1.75 °C; on Peregrin (Homo sapiens), -0.32 °C.
Consider `CC(C)(O)CNC(=O)N1C(=O)N(c2cccc(C(F)(F)F)c2)C2=C(C(=O)CC2)[C@H]1c1ccc(C#N)cc1`, for which the ΔTm was 0.72 °C in experiment [1] and -1.94 °C at Peregrin (Homo sapiens).
`CCN1C(=O)c2cc(C)ccc2N(C)c2ncccc21`: the ΔTm in experiment [1] was 0.59 °C; on Peregrin (Homo sapiens), -1.83 °C.
Turning to `CCCNc1ccc2ncc(-c3ccncc3)n2n1`, the ΔTm in experiment [1] worked out at 3.37 °C; at Peregrin (Homo sapiens) it was 0.26 °C.
As to `CN1CCN(c2ccc(-n3cc(-c4ccncc4OCC4CCNCC4)cn3)cc2)CC1`, the ΔTm in experiment [1] is 1.33 °C; at Peregrin (Homo sapiens), -0.97 °C.
`CC(C)C[C@H](NC(=O)[C@@H](O)[C@H](N)Cc1ccccc1)C(=O)O`: the values for the ΔTm (in experiment [1]; on Peregrin (Homo sapiens)) were 0.78 °C and -2.93 °C, respectively.
On to `O=C(Nc1cc2cc[nH]c(=O)c2cc1Cl)[C@H]1CNC[C@@H]1c1cccnc1`, for which the ΔTm was 0.4 °C in experiment [1] and -0.61 °C at Peregrin (Homo sapiens).
For `CCc1nc(-c2cccc(C)c2)c(-c2ccncc2)s1`, the shift in melting temperature (ΔTm) was 0.65 °C in experiment [1] and -0.75 °C at Peregrin (Homo sapiens).
On to `O=C(Nc1ccc(C(O)(C(F)(F)F)C(F)(F)F)cc1)c1ccc(C(F)(F)F)cc1`, for which the results for the ΔTm (in experiment [1]; on Peregrin (Homo sapiens)) were 2.93 °C and 0.72 °C, respectively.
The corresponding values for `CCCCCCCN(CCc1ccc(SC(C)(C)C(=O)O)cc1)C(=O)Nc1ccc(F)cc1F` are 0.87 °C and -1.59 °C.
Take `O=C(Cc1ccccc1[N+](=O)[O-])Nc1ccc(-c2ccc(C(O)(C(F)(F)F)C(F)(F)F)cc2F)cc1`: the ΔTm in experiment [1] stood at 1.47 °C; on Peregrin (Homo sapiens), 1.8 °C.
For `COc1cc(Nc2cnc(C#N)c(O[C@H](C)CN(C)C)n2)ncc1-c1cnn(C)c1`, the ΔTm in experiment [1] was 1.26 °C; on Peregrin (Homo sapiens) it was -0.27 °C.
On the same counts, the results for `Cc1cc(=O)n(C)c2cc(N3C(=O)CC[C@H](NS(=O)(=O)CC(C)C)[C@H]3c3ccc(Cl)cc3)ccc12` are 0.86 °C and -0.8 °C.
On to `COc1ccccc1-c1cc(Nc2cccc(CS(N)(=O)=O)c2)ncn1`, for which the results for the ΔTm (in experiment [1]; at Peregrin (Homo sapiens)) were 0.74 °C and -0.77 °C, respectively.
Regarding `COc1cc(N2CCN(C)CC2)ccc1Nc1ncc2c(n1)N(C)c1ccccc1C(=O)N2CC(F)(F)F`, the thermal shift (ΔTm) in experiment [1] is 0.22 °C; on Peregrin (Homo sapiens), -2.22 °C.
Consider `CN1C(=O)[C@@H](NC(=O)c2cc(Cc3ccccc3)on2)COc2ccccc21`, for which the ΔTm was -2.65 °C in experiment [1] and -1.87 °C on Peregrin (Homo sapiens).
For `CN(C)C(=O)Cn1cc(-c2ccc(-c3cncc4ccccc34)cc2)cn1`, the ΔTm in experiment [1] is 0.29 °C; on Peregrin (Homo sapiens), -2.52 °C.
On the same counts, the results for `CCOC(=O)C1Cc2ccccc2CN1C(=O)c1ccc(SC)s1` (stereo not drawn) are 0.41 °C and -1.13 °C.
For the compound `CCN(CC)CCO[C@H]1CC[C@@]2(C)C(=CC[C@@H]3[C@@H]2CC[C@]2(C)C(=O)CC[C@@H]32)C1`, the thermal shift (ΔTm) in experiment [1] was 0.44 °C; at Peregrin (Homo sapiens), -0.77 °C.

The values above are taken from ChEMBL document CHEMBL5308504, “Tm Shift (DSF) assay results for EUbOPEN Chemogenomics Library” (2023).
